Data reported in patent US8476434B2, “Protein kinase modulators and method of use” (Amgen Inc., priority 2004, dated 2013).

Target: T1, LCK KD GST (225-509) (Homo sapiens, UniProt P06239)
T1 construct: LCK KD GST (225-509); GST
Test: LCK Homogenous Time Resolved Fluorescent (HTRF) kinase assay
Assay type: biochemical
Experimental: The LCK HTRF assay begins with LCK in the presence of ATP phosphorylating the biotinylated peptide Gastrin. The reaction incubates for 90 min. To quench the assay detection reagents are added which both stop the reaction by diluting out the enzyme and chelating the metals due to the presence of EDTA. Once the detection reagents are added the assay incubates for 30 min to allow for equilibration of the detection reagents.
Buffer conditions are as follows: 50 mM HEPES pH 7.5, 50 mM NaCl, 20 mM MgCl, 5 mM MnCl, 2 mM DTT, 0.05% BSA.
The assay is quenched and stopped with 160 μL of detection reagent. Detection reagents are as follows: Buffer made of 50 mM Tris, pH 7.5, 100 mM NaCl, 3 mM EDTA, 0.05% BSA, 0.1% Tween20.
The assay plate is read in either a Discovery or a RubyStar.

T1 sequence (P06239 225-509): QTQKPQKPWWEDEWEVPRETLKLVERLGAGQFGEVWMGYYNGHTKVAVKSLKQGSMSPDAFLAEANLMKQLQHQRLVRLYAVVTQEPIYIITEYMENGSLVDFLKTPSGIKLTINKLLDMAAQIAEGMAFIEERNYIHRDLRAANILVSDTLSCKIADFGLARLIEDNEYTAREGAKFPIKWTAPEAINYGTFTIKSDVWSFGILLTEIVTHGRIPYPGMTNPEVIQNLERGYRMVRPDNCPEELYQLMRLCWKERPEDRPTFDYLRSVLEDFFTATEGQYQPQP

| Compound | IC50 [µM] |
| --- | --- |
| CNc1ncnc(-c2cccnc2Oc2ccc(F)c(C(=O)Nc3cc(C(F)(F)C(F)(F)F)ccc3N(C)CCCN(C)C)c2)n1 [N-(2-((3-(dimethylamino)propyl)(methyl)amino)-5-(pentafluoroethyl)phenyl)-2-fluoro-5-((3-(4-(methylamino)-1,3,5-triazin-2-yl)-2-pyridinyl)oxy)benzamide] | < 1 |
| CNc1ncnc(-c2cccnc2Oc2ccc(F)c(C(=O)Nc3cc(C(F)(F)F)ccc3N(C)CCCN(C)C)c2)n1 [N-(2-((3-(dimethylamino)propyl)(methyl)amino)-5-(trifluoromethyl)phenyl)-2-fluoro-5-((3-(4-(methylamino)-1,3,5-triazin-2-yl)-2-pyridinyl)oxy)benzamide] | < 1 |
| CNc1nccc(-c2cccnc2Oc2cc(C(=O)Nc3cc(C(F)(F)F)ccc3N(C)CCCN(C)C)ccc2C)n1 [N-(2-((3-(dimethylamino)propyl)(methyl)amino)-5-(trifluoromethyl)phenyl)-4-methyl-3-((3-(2-(methylamino)-4-pyrimidinyl)-2-pyridinyl)oxy)benzamide] | < 1 |
| CNc1ncnc(-c2cccnc2Oc2cc(C(=O)Nc3cc(C(F)(F)F)ccc3N(C)CCCN(C)C)ccc2C)n1 [N-(2-((3-(dimethylamino)propyl)(methyl)amino)-5-(trifluoromethyl)phenyl)-4-methyl-3-((3-(4-(methylamino)-1,3,5-triazin-2-yl)-2-pyridinyl)oxy)benzamide] | < 1 |
| CNc1ncnc(-c2cccnc2Oc2ccc(NC(=O)Nc3cc(C(F)(F)F)ccc3N(C)CCCN(C)C)c3ccccc23)n1 [N-(2-((3-(dimethylamino)propyl)(methyl)amino)-5-(trifluoromethyl)phenyl)-N′-(4-((3-(4-(methylamino)-1,3,5-triazin-2-yl)-2-pyridinyl)oxy)-1-naphthalenyl)urea] | < 1 |
| CNc1nccc(-c2cccnc2Oc2cc(C(=O)Nc3cc(C(F)(F)F)ccc3N3CC[C@H](N(C)C)C3)ccc2C)n1 [N-(2-((3S)-3-(dimethylamino)-1-pyrrolidinyl)-5-(trifluoromethyl)phenyl)-4-methyl-3-((3-(2-(methylamino)-4-pyrimidinyl)-2-pyridinyl)oxy)benzamide] | < 1 |
| CNc1ncnc(-c2cccnc2Oc2ccc(NC(=O)Nc3cc(C(F)(F)F)ccc3N3CC[C@H](N(C)C)C3)c3ccccc23)n1 [N-(2-((3S)-3-(dimethylamino)-1-pyrrolidinyl)-5-(trifluoromethyl)phenyl)-N′-(4-((3-(4-(methylamino)-1,3,5-triazin-2-yl)-2-pyridinyl)oxy)-1-naphthalenyl)urea] | < 1 |
| CNc1ncnc(-c2cccnc2Oc2ccc(NC(=O)Nc3cc(C(F)(F)F)ccc3CN3CC[C@@H](N(C)C)C3)c3ccccc23)n1 [N-(2-(((3R)-3-(dimethylamino)-1-pyrrolidinyl)methyl)-5-(trifluoromethyl)phenyl)-N′-(4-((3-(4-(methylamino)-1,3,5-triazin-2-yl)-2-pyridinyl)oxy)-1-naphthalenyl)urea] | < 1 |
| CNc1nccc(-c2cccnc2Oc2ccc(NC(=O)Nc3cc(C(F)(F)F)ccc3F)c3ccccc23)n1 [N-(2-fluoro-5-(trifluoromethyl)phenyl)-N′-(4-((3-(2-(methylamino)-4-pyrimidinyl)-2-pyridinyl)oxy)-1-naphthalenyl)urea] | < 1 |
| CNc1nccc(-c2cccnc2Oc2cc(C(=O)Nc3cc(C(C)(C)C)nn3-c3ccccc3)ccc2C)n1 [N-(3-(1,1-dimethylethyl)-1-phenyl-1H-pyrazol-5-yl)-4-methyl-3-((3-(2-(methylamino)-4-pyrimidinyl)-2-pyridinyl)oxy)benzamide] | < 1 |
| Cc1ccc(C(=O)Nc2cc(C(C)(C)C)nn2-c2ccccc2)cc1Oc1ncccc1-c1ccncn1 [N-(3-(1,1-dimethylethyl)-1-phenyl-1H-pyrazol-5-yl)-4-methyl-3-((3-(4-pyrimidinyl)-2-pyridinyl)oxy)benzamide] | < 1 |
| CNc1nccc(-c2cccnc2Oc2ccc(NC(=O)Nc3cc(F)cc(C(F)(F)F)c3)cc2C)n1 [N-(3-fluoro-5-(trifluoromethyl)phenyl)-N′-(3-methyl-4-((3-(2-(methylamino)-4-pyrimidinyl)-2-pyridinyl)oxy)phenyl)urea] | < 1 |
| CNc1nccc(-c2cccnc2Oc2ccc(NC(=O)Nc3cc(C(F)(F)F)ccc3OCCN3CCCC3)cc2C)n1 [N-(3-methyl-4-((3-(2-(methylamino)-4-pyrimidinyl)-2-pyridinyl)oxy)phenyl)-N′-(2-((2-(1-pyrrolidinyl)ethyl)oxy)-5-(trifluoromethyl)phenyl)urea] | < 1 |
| CNc1nccc(-c2cccnc2Oc2ccc(NC(=O)Nc3cc(C(F)(F)F)ccc3CN3CCN(C)CC3)cc2C)n1 [N-(3-methyl-4-((3-(2-(methylamino)-4-pyrimidinyl)-2-pyridinyl)oxy)phenyl)-N′-(2-((4-methyl-1-piperazinyl)methyl)-5-(trifluoromethyl)phenyl)urea] | < 1 |
| CNc1nccc(-c2cccnc2Oc2ccc(NC(=O)Nc3cc(C4CCN(C)CC4)cc(C(F)(F)F)c3)cc2C)n1 [N-(3-methyl-4-((3-(2-(methylamino)-4-pyrimidinyl)-2-pyridinyl)oxy)phenyl)-N′-(3-(1-methyl-4-piperidinyl)-5-(trifluoromethyl)phenyl)urea] | < 1 |
| O=C(Nc1cccc(C(F)(F)F)c1)Nc1ccc(Oc2ncccc2-c2ccncn2)c2ccccc12 [N-(4-((3-(4-pyrimidinyl)-2-pyridinyl)oxy)-1-naphthalenyl)-N′-(3-(trifluoromethyl)phenyl)urea] | < 1 |

More lines, now with the values ahead:

| IC50 [µM] | Compound |
| --- | --- |
| < 1 | CNc1cc(-c2cccnc2Oc2cc(C(=O)Nc3cc(C(F)(F)F)ccc3N(C)CCCN(C)C)ccc2C)ccn1 [N-(2-((3-(dimethylamino)propyl)(methyl)amino)-5-(trifluoromethyl)phenyl)-4-methyl-3-((2′-(methylamino)-3,4′-bipyridin-2-yl)oxy)benzamide] |
| < 1 | C#Cc1ccc(N(C)CCCN(C)C)c(NC(=O)c2cc(Oc3ncccc3-c3ccnc(NC)n3)ccc2F)c1 [N-(2-((3-(dimethylamino)propyl)(methyl)amino)-5-ethynylphenyl)-2-fluoro-5-((3-(2-(methylamino)-4-pyrimidinyl)-2-pyridinyl)oxy)benzamide] |
| < 1 | CNc1cc(-c2cccnc2Oc2ccc(Cl)c(NC(=O)c3cccc(C(C)C)c3)c2)ccn1 [N-(2-chloro-5-((2′-(methylamino)-3,4′-bipyridin-2-yl)oxy)phenyl)-3-(1-methylethyl)benzamide] |
| < 1 | CNc1ncnc(-c2cccnc2Oc2cc(C(=O)Nc3cc(C(F)(F)F)ccc3Cl)ccc2C)n1 [N-(2-chloro-5-(trifluoromethyl)phenyl)-4-methyl-3-((3-(4-(methylamino)-1,3,5-triazin-2-yl)-2-pyridinyl)oxy)benzamide] |
| < 1 | Cc1ccc(C(=O)Nc2cc(C(F)(F)F)ccc2Cl)cc1Oc1ncccc1-c1ccncn1 [N-(2-chloro-5-(trifluoromethyl)phenyl)-4-methyl-3-((3-(4-pyrimidinyl)-2-pyridinyl)oxy)benzamide] |
| < 1 | CNc1nccc(-c2cccnc2Oc2ccc(NC(=O)Nc3cc(C(F)(F)F)ccc3Cl)cc2C)n1 [N-(2-chloro-5-(trifluoromethyl)phenyl)-N′-(3-methyl-4-((3-(2-(methylamino)-4-pyrimidinyl)-2-pyridinyl)oxy)phenyl)urea] |
| < 1 | CNc1ncnc(-c2cccnc2Oc2ccc(F)c(C(=O)Nc3cccc(C(C)(C)C)c3)c2)n1 [N-(3-(1,1-dimethylethyl)phenyl)-2-fluoro-5-((3-(4-(methylamino)-1,3,5-triazin-2-yl)-2-pyridinyl)oxy)benzamide] |
| < 1 | CNc1cc(-c2cccnc2Oc2cc(NC(=O)c3cccc(C(C)C)c3)cc(C(F)(F)F)c2)ccn1 [N-(3-((2′-(methylamino)-3,4′-bipyridin-2-yl)oxy)-5-(trifluoromethyl)phenyl)-3-(1-methylethyl)benzamide] |
| < 1 | CNc1ncnc(-c2cccnc2Oc2cccc(NC(=O)c3cccc(C(C)C)c3)c2)n1 [N-(3-((3-(4-(methylamino)-1,3,5-triazin-2-yl)-2-pyridinyl)oxy)phenyl)-3-(1-methylethyl)benzamide] |
| < 1 | CCOc1cccc(NC(=O)c2ccc(C)c(Nc3ncccc3-c3ccncn3)c2)c1 [N-(3-(ethyloxy)phenyl)-4-methyl-3-((3-(4-pyrimidinyl)-2-pyridinyl)amino)benzamide] |
| < 1 | CNc1nccc(-c2cccnc2Oc2ccc(NC(=O)Nc3cccc(Br)c3)cc2C)n1 [N-(3-bromophenyl)-N′-(3-methyl-4-((3-(2-(methylamino)-4-pyrimidinyl)-2-pyridinyl)oxy)phenyl)urea] |
| < 1 | CNc1nccc(-c2cccnc2Oc2ccc(F)c(C(=O)Nc3cc(C(F)(F)F)cc(Cl)c3N(C)CCCN(C)C)c2)n1 [N-(3-chloro-2-((3-(dimethylamino)propyl)(methyl)amino)-5-(trifluoromethyl)phenyl)-2-fluoro-5-((3-(2-(methylamino)-4-pyrimidinyl)-2-pyridinyl)oxy)benzamide] |
| < 1 | Cc1ccc(C(=O)Nc2cccc(Cl)c2)cc1Nc1ncccc1-c1ccncn1 [N-(3-chlorophenyl)-4-methyl-3-((3-(4-pyrimidinyl)-2-pyridinyl)amino)benzamide] |
| < 1 | CNc1nccc(-c2cccnc2Oc2ccc(NC(=O)Nc3cccc(Cl)c3)cc2C)n1 [N-(3-chlorophenyl)-N′-(3-methyl-4-((3-(2-(methylamino)-4-pyrimidinyl)-2-pyridinyl)oxy)phenyl)urea] |
| < 1 | CNc1nccc(-c2cccnc2Oc2ccc(NC(=O)Nc3cccc(F)c3)cc2C)n1 [N-(3-fluorophenyl)-N′-(3-methyl-4-((3-(2-(methylamino)-4-pyrimidinyl)-2-pyridinyl)oxy)phenyl)urea] |
